Here are results for 21 compounds from PubChem BioAssay (NCI).

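Tested at 5 concentrations; 48 h exposure; 96-well plates; endpoints linearly interpolated, else capped at highest concentration. TGI is the concentration that stops growth completely.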 Where only a bound is given, the exact number is not on record here.

Among the test systems are U251 CNS; OVCAR-5 ovarian; SK-MEL-28 melanoma; SF-268 CNS; UACC-257 melanoma; MALME-3M melanoma; ACHN renal; LOX IMVI melanoma; OVCAR-3 ovarian; UO-31 renal.
Holding throughout (assay): growth of human tumour cells (NCI), 48 h

Regarding `Cc1ccc(N2C(=O)C3c4[nH]c5ccccc5c4C4CCC(C(C)(C)C)CC4C3C2=O)cc1` (centres undefined), the TGI was determined as 16.1 µM with U251 CNS; 39.3 µM with OVCAR-5 ovarian; 49 µM in the experiment on SK-MEL-28 melanoma; 18.9 µM in the experiment with SF-268 CNS; 40.5 µM with UACC-257 melanoma; 22.6 µM with MALME-3M melanoma. Besides, the TGI with ACHN renal is 13.6 µM; in the experiment with LOX IMVI melanoma, 26.6 µM; in the experiment on OVCAR-3 ovarian, 8.62 µM; with UO-31 renal, 31.3 µM.

In the case of `COC(=O)C1CC2(CCC1=O)Cc1ccccc1C2=O` (centres undefined), the TGI in the experiment with U251 CNS, in the experiment on OVCAR-5 ovarian, in the experiment on SK-MEL-28 melanoma, in the experiment with SF-268 CNS, in the experiment with UACC-257 melanoma and in the experiment with MALME-3M melanoma was above 100 µM each time. Besides, the TGI in the experiment with ACHN renal, in the experiment with LOX IMVI melanoma and with UO-31 renal was above 100 µM in each case.

On to `COc1cc(OC)c(OC)cc1/C=N/N=C(\N)NO`, for which the TGI in the experiment with U251 CNS, with OVCAR-5 ovarian, with SK-MEL-28 melanoma, in the experiment on SF-268 CNS, with UACC-257 melanoma and in the experiment with MALME-3M melanoma was above 100 µM in each case. For the same compound, the TGI in the experiment with ACHN renal, in the experiment with LOX IMVI melanoma, in the experiment with OVCAR-3 ovarian and with UO-31 renal was above 100 µM in each case.

Consider `O=C(Cn1c2c(c3ccccc31)CCCC2)NC1CCCCC1`, for which the TGI in the experiment with OVCAR-5 ovarian, in the experiment on SK-MEL-28 melanoma, in the experiment on SF-268 CNS, in the experiment on UACC-257 melanoma, in the experiment with MALME-3M melanoma and in the experiment with ACHN renal was above 100 µM throughout. The TGI with LOX IMVI melanoma, with OVCAR-3 ovarian and in the experiment on UO-31 renal was above 100 µM each time.

As to `CC1C(c2ccccc2)OP(=O)(OC(C#N)c2ccccc2)N1C` (centres undefined), the TGI with U251 CNS, in the experiment on OVCAR-5 ovarian, in the experiment with SK-MEL-28 melanoma, in the experiment on SF-268 CNS, in the experiment on UACC-257 melanoma and with MALME-3M melanoma was above 100 µM each time. The TGI in the experiment on ACHN renal, with LOX IMVI melanoma, in the experiment with OVCAR-3 ovarian and in the experiment on UO-31 renal was above 100 µM in each case.

As for `CC1(CCC2C=CCC2)CCCNC1=S` (centres undefined), the TGI in the experiment on U251 CNS, in the experiment on OVCAR-5 ovarian, with SK-MEL-28 melanoma, in the experiment with SF-268 CNS, in the experiment on UACC-257 melanoma and in the experiment with MALME-3M melanoma was above 10 µM each time. In addition, the TGI in the experiment with ACHN renal, with LOX IMVI melanoma, with OVCAR-3 ovarian and with UO-31 renal was above 10 µM each time.

In the case of `N#Cc1c(N)oc(-c2cccc([N+](=O)[O-])c2)c1C#N`, the TGI in the experiment with U251 CNS is 94.5 µM; in the experiment on OVCAR-5 ovarian, above 100 µM; in the experiment with SK-MEL-28 melanoma, 39.5 µM; with SF-268 CNS, above 100 µM; in the experiment on UACC-257 melanoma, 48.9 µM; in the experiment with MALME-3M melanoma, 61.6 µM. The results for the TGI in the experiment on ACHN renal, in the experiment on LOX IMVI melanoma and in the experiment with UO-31 renal were 34.8 µM, 85.6 µM and 30.8 µM, respectively.

With `COC(=O)C1=CSC2(S1)C(C(=O)OC)=CSc1c2ssc1=Nc1ccccc1` (centres undefined), the TGI with U251 CNS is 10.1 µM; with OVCAR-5 ovarian, 17.7 µM; in the experiment with SK-MEL-28 melanoma it was 5.76 µM; in the experiment on SF-268 CNS, above 100 µM; in the experiment with UACC-257 melanoma, 7.26 µM; in the experiment on MALME-3M melanoma, 4.95 µM. Besides, the TGI with ACHN renal is 6.57 µM; in the experiment with LOX IMVI melanoma it was 4.1 µM; in the experiment with OVCAR-3 ovarian, above 100 µM; in the experiment with UO-31 renal, above 100 µM.

On to `N#C/C(=C\c1ccccc1)C(=O)Nc1nnc(-c2ccccc2)o1`, for which the TGI with U251 CNS was above 100 µM; with OVCAR-5 ovarian it was above 100 µM; with SK-MEL-28 melanoma it was above 100 µM; with SF-268 CNS, above 100 µM; with UACC-257 melanoma it was 87.4 µM; in the experiment on MALME-3M melanoma, above 100 µM. Moreover, the TGI with ACHN renal was above 100 µM; with LOX IMVI melanoma it was above 100 µM; in the experiment on OVCAR-3 ovarian it was 66.3 µM; in the experiment on UO-31 renal, above 100 µM.

`COC(=O)[C@@H]1CN(C(=O)CCc2ccccc2)C(=O)N1C(=O)OCc1ccccc1`: the TGI in the experiment on U251 CNS, in the experiment on OVCAR-5 ovarian, in the experiment with SK-MEL-28 melanoma, with SF-268 CNS, with UACC-257 melanoma and in the experiment on MALME-3M melanoma was above 100 µM in each case. The TGI in the experiment on ACHN renal, in the experiment with LOX IMVI melanoma, in the experiment on OVCAR-3 ovarian and in the experiment on UO-31 renal was above 100 µM throughout.

Take `O=c1cc(-c2ccccc2)[nH]c2cc(O)ccc12`: the TGI was 90.7 µM in the experiment with U251 CNS; above 100 µM in the experiment with OVCAR-5 ovarian; above 100 µM with SK-MEL-28 melanoma; above 100 µM with SF-268 CNS; 48.2 µM in the experiment on UACC-257 melanoma; above 100 µM in the experiment with MALME-3M melanoma. For the same compound, the TGI in the experiment on ACHN renal stood at 53.7 µM; with LOX IMVI melanoma, 34.6 µM; in the experiment with UO-31 renal, 49.3 µM.

Consider `O=c1oc2ccccc2c(Nc2ccc3c(c2)S(=O)(=O)c2ccccc2O3)c1[N+](=O)[O-]`, for which the TGI with U251 CNS was 42.1 µM; in the experiment with OVCAR-5 ovarian, above 100 µM; in the experiment on SK-MEL-28 melanoma it was 51.9 µM; in the experiment on SF-268 CNS, above 100 µM; in the experiment with UACC-257 melanoma it was 58.8 µM; in the experiment with MALME-3M melanoma, 64.6 µM. The TGI in the experiment on ACHN renal is 70.2 µM; with LOX IMVI melanoma it was above 100 µM; in the experiment on OVCAR-3 ovarian it was 79 µM; with UO-31 renal it was 99.4 µM.

As to `CN(CCO)c1nc2c(c(=O)[nH]1)CCC2`, the TGI in the experiment with U251 CNS, in the experiment with OVCAR-5 ovarian, with SK-MEL-28 melanoma, with SF-268 CNS, in the experiment with UACC-257 melanoma and with MALME-3M melanoma was above 100 µM each time. Besides, the TGI with ACHN renal, in the experiment with LOX IMVI melanoma, in the experiment with OVCAR-3 ovarian and in the experiment with UO-31 renal was above 100 µM each time.

`COc1cc2c(c(OC)c1OC)C(=O)[C@H](O)[C@H]2NC(N)=O`: the TGI in the experiment on U251 CNS, in the experiment on OVCAR-5 ovarian, in the experiment with SK-MEL-28 melanoma, in the experiment on SF-268 CNS, with UACC-257 melanoma and with MALME-3M melanoma was above 100 µM in each case. Further, the TGI in the experiment on ACHN renal, in the experiment with LOX IMVI melanoma, in the experiment on OVCAR-3 ovarian and in the experiment with UO-31 renal was above 100 µM in each case.

`COc1ccc(NC(=O)CC(=O)N2N=C(C)C(N=Nc3ccc(S(=O)(=O)c4ccc(N=NC5C(=O)N(C(=O)CC(=O)Nc6ccc(OC)cc6)N=C5C)cc4)cc3)C2=O)cc1` (centres undefined): the TGI in the experiment on U251 CNS, with SK-MEL-28 melanoma, with SF-268 CNS, in the experiment on UACC-257 melanoma, in the experiment on MALME-3M melanoma and in the experiment on ACHN renal was above 100 µM in each case. The TGI in the experiment with LOX IMVI melanoma, in the experiment on OVCAR-3 ovarian and in the experiment with UO-31 renal was above 100 µM each time.

On to `O=C(CN1CCNCCN(CC(=O)N2CCCCC2)CCNCC1)N1CCCCC1`, for which the TGI in the experiment with U251 CNS, in the experiment on OVCAR-5 ovarian, in the experiment with SK-MEL-28 melanoma, in the experiment with UACC-257 melanoma, with MALME-3M melanoma and in the experiment on ACHN renal was above 100 µM in each case. In addition, the TGI in the experiment on LOX IMVI melanoma, in the experiment on OVCAR-3 ovarian and with UO-31 renal was above 100 µM each time.

Consider `Cc1cc(C)c(C2=NOC(c3ccccc3)(c3cc(=O)n(-c4ccccc4)s3)O2)c(C)c1` (centres undefined), for which the TGI was 66.4 µM in the experiment on U251 CNS; 40.9 µM in the experiment with OVCAR-5 ovarian; 94.4 µM in the experiment on SK-MEL-28 melanoma; above 100 µM with SF-268 CNS; above 100 µM in the experiment with UACC-257 melanoma; 40.1 µM with MALME-3M melanoma. Also, the TGI in the experiment with ACHN renal worked out at 52.2 µM; in the experiment with LOX IMVI melanoma, 30.7 µM; in the experiment on UO-31 renal it was 47.1 µM.

As for `Cc1ccc(-c2nc3ccc(Cl)cc3[nH]2)cc1`, the TGI with U251 CNS, in the experiment with SK-MEL-28 melanoma, with SF-268 CNS, with UACC-257 melanoma, in the experiment with MALME-3M melanoma and in the experiment with ACHN renal was above 100 µM each time. In addition, the TGI with LOX IMVI melanoma, with OVCAR-3 ovarian and with UO-31 renal was above 100 µM each time.

Take `CSc1nc(N)c(NC2OC(CO)C(O)C2O)c(=O)[nH]1` (centres undefined): the TGI in the experiment on U251 CNS, in the experiment on OVCAR-5 ovarian, in the experiment with SK-MEL-28 melanoma, with SF-268 CNS, with UACC-257 melanoma and with MALME-3M melanoma was above 100 µM each time. For the same compound, the TGI with LOX IMVI melanoma, in the experiment with OVCAR-3 ovarian and in the experiment on UO-31 renal was above 100 µM throughout.

Turning to `CCCCCCNC(=O)c1cnc(Cl)cn1`, the TGI in the experiment with U251 CNS amounted to 23.6 µM; with OVCAR-5 ovarian, 32.5 µM; in the experiment with SK-MEL-28 melanoma, 74.9 µM; in the experiment on SF-268 CNS, 31.4 µM; in the experiment on UACC-257 melanoma it was 37.4 µM; in the experiment on MALME-3M melanoma, 31.1 µM. Further, the TGI with ACHN renal came out at 8.49 µM; with LOX IMVI melanoma, 27.7 µM; in the experiment with UO-31 renal, 3.24 µM.

Consider `NNC(=O)c1ccc(-n2nnc(C(=O)NN)c2C(=O)NN)cc1`, for which the TGI in the experiment with U251 CNS, in the experiment on OVCAR-5 ovarian, in the experiment with SK-MEL-28 melanoma, in the experiment on UACC-257 melanoma, with MALME-3M melanoma and in the experiment on ACHN renal was above 100 µM in each case. Also, the TGI with LOX IMVI melanoma, in the experiment with OVCAR-3 ovarian and in the experiment on UO-31 renal was above 100 µM in each case.
